Key:
[1] = molecular target: T1, purified C-linker/CNBHD of mEAG1 channels (Mus musculus, UniProt Q60603); assay: Tryptophan-to-flavonoid FRET binding assay; conditions: 100 µM flavonoid; 4 µM protein
T1 sequence (Q60603 505-702): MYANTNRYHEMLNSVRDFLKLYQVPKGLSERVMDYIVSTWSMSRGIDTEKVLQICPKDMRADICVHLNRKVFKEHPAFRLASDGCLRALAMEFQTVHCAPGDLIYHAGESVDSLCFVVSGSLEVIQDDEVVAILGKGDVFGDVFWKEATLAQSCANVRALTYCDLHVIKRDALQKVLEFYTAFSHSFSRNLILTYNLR

[2] = Solubility limit in recording / aqueous solutions; format: physicochemical; conditions: aqueous solutions
mEAG1 channel = molecular target: T2, mEAG1 channel (Mus musculus, UniProt Q60603); assay: Inside-out patch-clamp of wild-type mEAG1 channels expressed in Xenopus oocytes; format: cell-based; conditions: 50 µM
T2 sequence (Q60603 1-989): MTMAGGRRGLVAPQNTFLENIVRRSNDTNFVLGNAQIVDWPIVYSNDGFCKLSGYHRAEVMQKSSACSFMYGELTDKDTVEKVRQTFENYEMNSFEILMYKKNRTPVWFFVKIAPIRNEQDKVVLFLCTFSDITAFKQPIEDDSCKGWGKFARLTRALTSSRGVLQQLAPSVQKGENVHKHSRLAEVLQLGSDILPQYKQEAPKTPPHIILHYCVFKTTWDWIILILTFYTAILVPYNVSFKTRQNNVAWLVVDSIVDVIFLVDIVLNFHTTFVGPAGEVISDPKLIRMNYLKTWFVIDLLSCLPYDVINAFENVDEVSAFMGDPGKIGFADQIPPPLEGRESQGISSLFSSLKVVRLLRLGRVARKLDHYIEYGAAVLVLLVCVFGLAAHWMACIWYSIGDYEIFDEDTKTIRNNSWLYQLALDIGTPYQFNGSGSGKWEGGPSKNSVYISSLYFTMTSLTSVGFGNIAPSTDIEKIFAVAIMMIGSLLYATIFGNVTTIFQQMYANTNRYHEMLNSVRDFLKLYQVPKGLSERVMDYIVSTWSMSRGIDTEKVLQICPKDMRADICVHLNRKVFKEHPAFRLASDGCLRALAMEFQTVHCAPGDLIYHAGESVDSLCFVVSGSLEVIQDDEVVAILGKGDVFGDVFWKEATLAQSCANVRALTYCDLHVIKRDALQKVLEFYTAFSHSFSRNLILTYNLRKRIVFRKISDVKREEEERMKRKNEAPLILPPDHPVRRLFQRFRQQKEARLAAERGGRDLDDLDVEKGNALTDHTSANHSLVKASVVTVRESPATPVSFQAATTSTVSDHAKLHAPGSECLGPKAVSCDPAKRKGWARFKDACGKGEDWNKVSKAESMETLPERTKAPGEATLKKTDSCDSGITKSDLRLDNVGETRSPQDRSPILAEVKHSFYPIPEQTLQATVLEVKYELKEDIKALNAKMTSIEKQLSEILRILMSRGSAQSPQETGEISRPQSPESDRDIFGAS

decrease of peak fluorescence intensity of the C-linker/CNBHD at 341 nm [1] [%]	solubility [2] [µM]	effect on steady-state or kinetic properties of mEAG1 channel gating (mEAG1 channel)	SMILES
51	≤ 150		O=c1c(O)c(-c2ccc(O)c(O)c2)oc2cc(O)cc(O)c12 [Quercetin, 2-(3,4-dihydroxyphenyl)-3,5,7-trihydroxy-4H-chromen-4-one]
		did not alter	COc1ccc(-c2cc(=O)c3c(O)cc(O)cc3o2)cc1 [Acacetin, 5,7-dihydroxy-2-(4-methoxyphenyl)chromen-4-one]
		did not alter	Oc1cc(O)c2c(c1)O[C@H](c1ccc(O)c(O)c1)[C@@H](O)C2 [Catechin, (2R,3S)-2-(3,4-dihydroxyphenyl)-3,4-dihydro-2H-chromene-3,5,7-triol]

SMILES	decrease of peak fluorescence intensity of the C-linker/CNBHD at 341 nm [1] [%]	solubility [2] [µM]	effect on steady-state or kinetic properties of mEAG1 channel gating (mEAG1 channel)
C[C@]12CC[C@@H]3c4ccc(O)cc4CC[C@H]3[C@@H]1CC[C@@H]2O [Estradiol, (17β)-estra-1,3,5(10)-triene-3,17-diol]			did not shift the voltage dependence or slow the deactivation

Source: article PMC3581696 (The Journal of General Physiology, 2013)
